Laboratory results: patent US20260256808A1, “Istaroxime-Containing Intravenous Formulation for the Treatment of Pre-Cardiogenic Shock and Cardiogenic Shock” (Windtree Therapeutics, Inc., priority 2022, published 2026)
“Also recorded” adds a separate entry of the source.

Key:
[1] = test system: patients with AHF and exhibiting pre-cardiogenic shock (SCAI stage B); test: SEISMIC: randomized, double-blind, placebo-controlled study of 24 h istaroxime infusion in pre-cardiogenic shock; format: in vivo, human
Method: Pre-CS was defined as defined as systolic blood pressure (SBP)<90 mmHg without hypoperfusion, venous lactate >2 mmol/L and/or mechanical or inotropic support. The inclusion criteria included AHF-related SCAI stage B pre-CS, 18-85 years of age, an ongoing hospitalization for AHF, left ventricular ejection fraction <40%, persistent hypotension (SBP between 75 and 90 mmHg), heart rate of 75-150 bpm and no need at time of screening or planned use for 6 h thereafter of mechanical support or intravenous therapy to increase BR According to the stage B SCAI classification, patients with clinical signs of peripheral hypoperfusion, venous lactate >2 mmol/L and/or on mechanical support or treatment with intravenous vasodilators, inotropes or vasopressors were excluded. Other exclusion criteria were concomitant or planned treatment with oral digoxin (could be randomized if the plasma concentration of digoxin at screening was <0.5 ng/ml); acute coronary syndrome or stroke within the past 3 months; coronary artery bypass graft or percutaneous coronary intervention within the past month or planned in the next month; life-threatening ventricular arrhythmia or implantable cardioverter defibrillator shock within the past month; sustained ventricular tachycardia in the last 3 months or uncontrolled arrhythmia; fever >38° C.; estimated glomerular filtration rate (eGFR)[…]; serum potassium >5.3 or <3.5 mmol/L; stroke or transient ischaemic accident within the past 3 months; and acute respiratory distress syndrome.
The patients were randomized centrally, using an interactive response technology, to receive istaroxime or placebo at a ratio of 1:1. Study medication was supplied in uniquely-numbered kits containing identical vials of lyophilized powder (istaroxime plus lactose), reconstituted by adding 5 ml saline to the vial. Istaroxime was administered as a continuous infusion 1.0 μg/kg/min for 24 h. The infusion rate could be decreased at the discretion of the investigator based on the development of tolerability issues (such as nausea), significant bradycardia, or greater than desired BP elevation.
The primary efficacy endpoint was the area under the curve representing the change in SBP from baseline, start of study drug infusion, through 6 h (SBP AUC). The secondary endpoints included SBP AUC through 24 h; changes from baseline in SBP (particularly at 6 and 24 h), diastolic blood pressure (DBP) and mean arterial pressure (MAP); changes from baseline in heart rate (HR); treatment failure score (based on death, circulatory, respiratory, or renal mechanical support or intravenous inotrope or vasopressor treatment, and changes in SBP); treatment failure defined as death or need for circulatory, respiratory, or renal mechanical support or intravenous inotrope or vasopressor treatment; increase from baseline in SBP >5% and/or >10 mmHg; changes in quality of life measured by the EuroQol 5 Dimension 5 Level (EQ-5D-5L); change from baseline to 24 h in echocardiography parameters; changes in troponin and N-terminal pro-B-type natriuretic peptide (NT-proBNP); hospital readmission for heart failure and for any cause by day 30; in-hospital worsening heart failure to day 5; and length of hospital stay. In-hospital worsening heart failure was defined as worsening signs and/or symptoms of heart failure since the previous assessment that required an intensification of intravenous therapy for heart failure or mechanical ventilatory, renal, or circulatory support. The safety endpoints were assessed throughout the study and included the incidence of adverse events; changes in vital signs and in 12-lead electrocardiogram (ECG) parameters; incidence of clinically or haemodynamically significant episodes of supraventricular or ventricular arrhythmias detected by continuous ECG monitoring; standard laboratory parameters; renal function measures; cardiac troponin I or T; and mortality through day 30. […]

[2] = test system: patients hospitalized with ADHF and reduced LV systolic function; details: 0.5-1.0-1.5 μg/kg/min, cited from earlier work
patients with ADHF = details: cited from earlier work
[3] = 24 h Post-Treatment, adjusted least square mean change
[4] = 24 h Post-Treatment, adjusted least square mean change, listed as istaroxime
[5] = 24 h Post-Treatment, mean, n = 29

Structure (SMILES): C[C@]12CCC(=NOCCN)C[C@@H]1C(=O)C[C@@H]1[C@@H]2CC[C@]2(C)C(=O)CC[C@@H]12 [Istaroxime]
- adjusted SBP increase at 6 h ([1]; 6 h after infusion start, (SE), p=0.045 vs placebo): 12.3 (SE 1.71) mmHg
- Mitral Regurgitation Mild, number of patients ([1]; 24 h Post Treatment): 11
- Mitral Regurgitation Mild, share of patients ([1]; 24 h Post Treatment): (39%)
- Mitral Regurgitation Moderate, number of patients ([1]; 24 h Post Treatment): 16
- Mitral Regurgitation Moderate, share of patients ([1]; 24 h Post Treatment): (57%)
- Mitral Regurgitation None, number of patients ([1]; 24 h Post Treatment): 1
- Mitral Regurgitation None, share of patients ([1]; 24 h Post Treatment): (4%)
- Cardiac Index, Change from Baseline [1, 3]: 0.156 L/min/m^2
- Cardiac Output, Change from Baseline [1, 3]: 0.23 L/min
- E/A Ratio, Change from Baseline [1, 3]: −0.380
- E/Ea Ratio, Change from Baseline [1, 3]: −0.615
- Ejection Time, Change from Baseline [1, 3]: -2.807 ms
- Inferior Vena Cava Diameter, Change from Baseline [1, 3]: −2.503 mm
- Left Atrial Area, Change from Baseline [1, 3]: −1.817 cm^2
- Left Atrial Volume, Change from Baseline [1, 3]: -7.440 mL
- Left Ventricular Ejection Fraction, Change from Baseline [1, 3]: 2.678%
- Left Ventricular End-Diastolic Diameter, Change from Baseline [1, 3]: −0.668 mm
- Left Ventricular End-Diastolic Volume, Change from Baseline [1, 3]: -6.501 mL
- Left Ventricular End-Systolic Diameter, Change from Baseline [1, 3]: −0.719 mm
- Left Ventricular End-Systolic Volume, Change from Baseline [1, 3]: -8.692 mL
- Pulmonary Artery Systolic Pressure, Change from Baseline [1, 3]: −7.084 mmHg
- Stroke Volume Index, Change from Baseline [1, 3]: 4.001 ml/m^2
- Tricuspid Annular Plane Systolic Excursion, Change from Baseline [1, 3]: 0.0860 mm
- Cardiac Index, Change from Baseline [1, 4]: 0.16 ± 0.1 L/min/m^2
- Left Atrial Area, Change from Baseline [1, 4]: −1.8+0.5 cm^2
- Left Ventricular End-Diastolic Volume, Change from Baseline [1, 4]: −6.5+4.9 ml
- Left Ventricular End-Systolic Volume, Change from Baseline [1, 4]: −8.7+4.2 ml
- Cardiac Index, Observed [1, 5]: 2.1 L/min/m^2
- Cardiac Output, Observed [1, 5]: 3.93 L/min
- E/A Ratio, Observed [1, 5]: 1.5
- E/Ea Ratio, Observed [1, 5]: 12.2
- Ejection Time, Observed [1, 5]: 219.0 ms
- Inferior Vena Cava Diameter, Observed [1, 5]: 19.5 mm
- Left Atrial Area, Observed [1, 5]: 27.1 cm^2
- Left Atrial Volume, Observed [1, 5]: 95.2 mL
- Left Ventricular Ejection Fraction, Observed [1, 5]: 29.5%
- Left Ventricular End-Diastolic Diameter, Observed [1, 5]: 61.3 mm
- Left Ventricular End-Diastolic Volume, Observed [1, 5]: 194.3 mL
- Left Ventricular End-Systolic Diameter, Observed [1, 5]: 52.8 mm
- Left Ventricular End-Systolic Volume, Observed [1, 5]: 135.7 mL
- Pulmonary Artery Systolic Pressure, Observed [1, 5]: 36.8 mmHg
- Stroke Volume Index, Observed [1, 5]: 28.3 ml/m^2
- Tricuspid Annular Plane Systolic Excursion, Observed [1, 5]: 15.9 mm
- adjusted change in SBP at 24 h ([1]; 24 h after infusion start, (SE), p=0.543 vs placebo): 17.1 (SE 2.36) mmHg
- change in DBP ([1]; FIG. 3C, up to 96 h, persisting beyond the 24 h of drug administration): increases were noted
- change in MAP ([1]; FIG. 4A, persisting beyond the 24 h of drug administration): increases were noted
- adjusted mean 6 h AUC of change in SBP from baseline ([1]; infusion start to hour 6, istaroxime iv infusion 24 h, adjusted mean (SE), p=0.017 vs placebo): 53.1 (SE 6.88) mmHg·h
- adjusted mean 24 h SBP AUC ([1]; infusion start to hour 24, adjusted mean (SE), p=0.025 vs placebo): 291.2 (SE 27.5) mmHg·h
- increase of adjusted mean 6 h SBP AUC versus placebo ([1]; istaroxime 53.1 vs placebo 30.9 mmHg·h): 72%
- increase of adjusted mean 24 h SBP AUC versus placebo ([1]; istaroxime 291.2 vs placebo 208.7 mmHg·h): 40%
- effect on heart rate / pulse ([1]; patients with pre-cardiogenic shock): without effects on pulse; also recorded: not by increasing the heart rate
- HR during infusion ([2]; 6-hour infusion): tended to decrease
- SBP during infusion ([2]; 6-hour infusion): slightly increased in a dose-dependent manner
- change from baseline in PCWP ([2]; after 6 h infusion, vs placebo, plateaued after 3 hours): dose-dependent improvements in PCWP
- E/Ea ratio (patients with ADHF; 0.5 μg/kg/min and 1.0 μg/kg/min infused for up to 24 hours, vs placebo): an improvement in both treatment groups
- diastolic function parameters (patients with ADHF; measured after 6 hours of infusion): significant improvements for most of the diastolic function parameters
